From US6613718B2, “Aryl ether derivatives and processes for their preparation and herbicidal and desiccant compositions containing them” (Ishihara Sangyo Kaisha, Ltd., priority 2001, dated 2003)

Tests used:
[1] = Pre-emerge herbicidal activity of mixtures with Compound 1-1 and other herbicides, observed 64 days after treatment; format: in vivo; details: 1-1 alone 50 g ai/ha
Protocol: (§1) The data in Table XI and Table XII show the results when compounds 1-1 and 2-1 were tested as mixtures with other herbicides. Observations in Table XI were made 64 days after treatment while those in Table XII were made 56 days after treatment.

[2] = Pre-emerge herbicidal activity of mixtures with Compound 2-1 and other herbicides, observed 56 days after treatment; format: in vivo; details: 2-1 alone 200 g ai/ha
Protocol: as §1

Row | Structure (SMILES) | ABUTH pre-emerge herbicidal activity ([1]; ABUTH) | AMARE pre-emerge herbicidal activity ([1]; AMARE) | AMBEL pre-emerge herbicidal activity ([1]; AMBEL) | CHEAL pre-emerge herbicidal activity ([1]; CHEAL) | CORN damage, pre-emerge ([1]; CORN) | SETVI pre-emerge herbicidal activity ([1]; SETVI) | ABUTH pre-emerge herbicidal activity ([2]; ABUTH) | AMARE pre-emerge herbicidal activity ([2]; AMARE) | AMBEL pre-emerge herbicidal activity ([2]; AMBEL) | CHEAL pre-emerge herbicidal activity ([2]; CHEAL) | CORN damage, pre-emerge ([2]; CORN) | SETVI pre-emerge herbicidal activity ([2]; SETVI)
1 | Cn1c(C(F)(F)F)cc(=O)n(-c2cc(Oc3ncccn3)c(Cl)cc2F)c1=S [1-1.] | 87 | 93 | 92 | 95 | 0 | 90 | – | – | – | – | – | –
2 | Cn1c(=S)n(C)c(=O)n(-c2cc(Oc3ncccn3)c(Cl)cc2F)c1=O [2-1.] | – | – | – | – | – | – | 95 | 93 | 95 | 95 | 0 | 90
